Assay results as given in ChEMBL document CHEMBL1153935, “4,4'-Dihydroxy-trans-stilbene, a resveratrol analogue, exhibited enhanced antioxidant activity and cytotoxicity” (Bioorg Med Chem, 2009).
Active and inactive are the calls of the source. No cut-off for these calls is given here.

How the values were obtained:
Erythrocyte [1] = test: Inhibition of Fe(2+)/ascorbate-induced lipid peroxidation in human erythrocyte ghosts assessed as inhibition of malondialdehyde formation per mg of protein at 2 uM after 30 mins; assay type: functional
HL-60 [2] = test: Cytotoxicity against human HL60 cells at 20 uM after 48 hrs by MTT assay; assay type: functional
Erythrocyte [3] = test: Inhibition of Fe(2+)/ascorbate-induced lipid peroxidation in human erythrocyte ghosts assessed as inhibition of malondialdehyde formation per mg of protein at 3 uM after 30 mins; assay type: functional
Erythrocyte [4] = test: Inhibition of Fe(2+)/ascorbate-induced lipid peroxidation in human erythrocyte ghosts assessed as inhibition of malondialdehyde formation per mg of protein at 1 uM after 30 mins; assay type: functional
Erythrocyte [5] = test: Inhibition of Fe(2+)/ascorbate-induced lipid peroxidation in human erythrocyte ghosts assessed as inhibition of malondialdehyde formation at 5 uM; assay type: functional, cell-based
HL-60 [6] = test: Cytotoxicity against human HL60 cells at 10 uM after 48 hrs by MTT assay; assay type: functional
Erythrocyte [7] = test: Inhibition of Fe(2+)/ascorbate-induced lipid peroxidation in human erythrocyte ghosts assessed as inhibition of malondialdehyde formation at 1 to 5 uM; assay type: functional, cell-based
HL-60 [8] = test: Cytotoxicity against human HL60 cells after 48 hrs by MTT assay; assay type: functional, cell-based; details: for IC50: HL-60, 48 h
Erythrocyte [9] = test: Inhibition of Fe(2+)/ascorbate-induced lipid peroxidation in human erythrocyte ghosts assessed as increase in inhibition period; assay type: functional, cell-based
HL-60 [10] = test: Cytotoxicity against human HL60 cells at 30 uM after 48 hrs by MTT assay; assay type: functional

SMILES	Activity (Erythrocyte [1]) [nmol]	Activity (HL-60 [2]) [%]	Activity (Erythrocyte [3]) [nmol]	Activity (Erythrocyte [4]) [nmol]	Activity (Erythrocyte [5])	Activity (HL-60 [6]) [%]	Activity (Erythrocyte [7])	Activity (HL-60 [8])	IC50 (HL-60 [8]) [µM]	Activity (Erythrocyte [9])	Activity (HL-60 [10]) [%]
Oc1ccc(/C=C/c2cc(O)cc(O)c2)cc1 [RESVERATROL]	0.61	72	0.18	1.33	Active	83	Dose-dependent effect	Dose-dependent effect	36.3	Dose-dependent effect	43
COc1cc([C@@H]2c3cc4c(cc3[C@@H](O[C@@H]3O[C@@H]5CO[C@@H](C)O[C@H]5[C@H](O)[C@H]3O)[C@H]3COC(=O)[C@H]23)OCO4)cc(OC)c1O [ETOPOSIDE]									3.3		
Oc1ccc(/C=C/c2ccc(O)cc2)cc1 [TRANS-4,4'-DIHYDROXYSTILBENE]	0.45		0.17	0.8					6.5		
